In ChEMBL document CHEMBL1201862, “PubChem BioAssay data set” (2004):
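Five compound concentrations were applied to cells in 96-well plates for 48 hours; endpoints were derived by simple linear interpolation of the resulting dose-response curve. At the GI50, growth is halved.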 Activity calls are given as the source filed them. Cut-off read from the data, not from the text of the source: active = GI50 up to about 1.1 µM and inactive = higher.

Legend:
Test in all cases: NCI anticancer screen, dose series, 48 h
786-0 = system: 786-0
A549 = system: A549
HCT-15 = system: HCT-15
HL-60 = system: HL-60
HOP-62 = system: HOP-62
M14 = system: M14
Malme-3M = system: Malme-3M
NCI-H226 = system: NCI-H226
NCI-H23 = system: NCI-H23
NCI-H522 = system: NCI-H522
RXF 393 = system: RXF 393
SK-MEL-28 = system: SK-MEL-28
SK-OV-3 = system: SK-OV-3
TK-10 = system: TK-10
U-251 = system: U-251
UACC-62 = system: UACC-62
UO-31 = system: UO-31
HCC 2998 = system: HCC 2998
SF-268 = system: SF-268
SNB-75 = system: SNB-75

For `COc1ccc2[nH]cc(CCNC(=O)[C@H](Cc3ccccc3)NC(=O)[C@@H](NCC(F)(F)F)C(C)C)c2c1`, the GI50 (786-0) was 18.1 µM (inactive), the GI50 (A549) was 27 µM (inactive) and the GI50 (HCT-15) was 21.4 µM. The GI50 (HL-60) was 20.1 µM (inactive), the GI50 (HOP-62) was 14.8 µM (inactive) and the GI50 (M14) was 17.7 µM (inactive). The GI50 (Malme-3M) was 21.6 µM (inactive), the GI50 (NCI-H226) was 21.4 µM (inactive) and the GI50 (NCI-H23) was 25.3 µM (inactive). For the same compound, the GI50 (NCI-H522) was 16.7 µM (inactive), the GI50 (RXF 393) was 15.6 µM (inactive) and the GI50 (SK-MEL-28) was 17.2 µM (inactive). The GI50 (SK-OV-3) was 18.2 µM (inactive), the GI50 (TK-10) was 22 µM (inactive) and the GI50 (U-251) was 21.4 µM (inactive). For the same compound, the GI50 (UACC-62) was 19.1 µM (inactive) and the GI50 (UO-31) was 22.9 µM (inactive).
`Clc1ccc(-c2nc(-c3ccc(Cl)cc3)[s+]s2)cc1` was tested, and the GI50 (786-0) was 38 µM (inactive), the GI50 (A549) was 39.9 µM (inactive) and the GI50 (HCC 2998) was > 100 µM (inactive). For the same compound, the GI50 (HCT-15) was 33.3 µM, the GI50 (HOP-62) was 34 µM (inactive) and the GI50 (M14) was > 100 µM (inactive). For the same compound, the GI50 (Malme-3M) was 18.7 µM (inactive), the GI50 (NCI-H23) was 78 µM (inactive) and the GI50 (NCI-H522) was 29.4 µM (inactive). The GI50 (RXF 393) was 84.7 µM (inactive), the GI50 (SF-268) was 37.2 µM (inactive) and the GI50 (SK-MEL-28) was 59.7 µM (inactive). For the same compound, the GI50 (SK-OV-3) was 41.1 µM (inactive), the GI50 (TK-10) was 24 µM (inactive) and the GI50 (U-251) was 30.4 µM (inactive). The GI50 (UACC-62) was 52.2 µM (inactive) and the GI50 (UO-31) was > 100 µM (inactive).
For `O=C1NCC2(CCNCC2)N1`, the GI50 (786-0) was > 100 µM (inactive), the GI50 (A549) was > 100 µM (inactive) and the GI50 (HCC 2998) was > 100 µM (inactive). The GI50 (HCT-15) was greater than 100 µM, the GI50 (HL-60) was > 100 µM (inactive) and the GI50 (HOP-62) was > 100 µM (inactive). The GI50 (M14) was > 100 µM (inactive), the GI50 (Malme-3M) was > 100 µM (inactive) and the GI50 (NCI-H226) was > 100 µM (inactive). For the same compound, the GI50 (NCI-H23) was > 100 µM (inactive), the GI50 (RXF 393) was > 100 µM (inactive) and the GI50 (SF-268) was > 100 µM (inactive). The GI50 (SK-MEL-28) was > 100 µM (inactive), the GI50 (SK-OV-3) was > 100 µM (inactive) and the GI50 (SNB-75) was > 100 µM (inactive). For the same compound, the GI50 (TK-10) was > 100 µM (inactive), the GI50 (U-251) was > 100 µM (inactive) and the GI50 (UACC-62) was > 100 µM (inactive). The GI50 (UO-31) was > 100 µM (inactive).
In the case of `CCOC(=O)NC(=O)c1cn(CCSCCOC(=O)NCCCCCCNC(=O)OCCSCCn2cc(C(=O)NC(=O)OCC)c(=O)n(C)c2=O)c(=O)n(C)c1=O`, the GI50 (786-0) is reported as 30.3 µM (inactive), the GI50 (A549) is reported as 45.2 µM (inactive) and the GI50 (HCC 2998) is reported as 30.5 µM (inactive). For the same compound, the GI50 (HCT-15) was 86.3 µM, the GI50 (HL-60) was 15.3 µM (inactive) and the GI50 (HOP-62) was 51.5 µM (inactive). The GI50 (Malme-3M) was 24.6 µM (inactive), the GI50 (NCI-H226) was 21.1 µM (inactive) and the GI50 (NCI-H23) was 19.9 µM (inactive). For the same compound, the GI50 (RXF 393) was 27.6 µM (inactive), the GI50 (SF-268) was 24 µM (inactive) and the GI50 (SK-MEL-28) was 41.8 µM (inactive). For the same compound, the GI50 (SK-OV-3) was 34.7 µM (inactive), the GI50 (SNB-75) was > 100 µM (inactive) and the GI50 (TK-10) was 44.3 µM (inactive). For the same compound, the GI50 (U-251) was 16.8 µM (inactive), the GI50 (UACC-62) was 24.8 µM (inactive) and the GI50 (UO-31) was > 100 µM (inactive).
`CC(NC1CCCC[C@@H]1O)c1ccccc1` (some centres not stated) was tested, and the GI50 (786-0) was > 100 µM (inactive), the GI50 (A549) was > 100 µM (inactive) and the GI50 (HCC 2998) was > 100 µM (inactive). For the same compound, the GI50 (HCT-15) was greater than 100 µM, the GI50 (HL-60) was > 100 µM (inactive) and the GI50 (HOP-62) was > 100 µM (inactive). For the same compound, the GI50 (M14) was > 100 µM (inactive), the GI50 (Malme-3M) was > 100 µM (inactive) and the GI50 (NCI-H226) was > 100 µM (inactive). For the same compound, the GI50 (RXF 393) was > 100 µM (inactive), the GI50 (SK-MEL-28) was > 100 µM (inactive) and the GI50 (SK-OV-3) was > 100 µM (inactive). The GI50 (SNB-75) was > 100 µM (inactive), the GI50 (TK-10) was > 100 µM (inactive) and the GI50 (U-251) was > 100 µM (inactive). For the same compound, the GI50 (UACC-62) was > 100 µM (inactive) and the GI50 (UO-31) was > 100 µM (inactive).
With `O=C1OC(c2ccccc2)=N/C1=C/c1cccs1` the GI50 (A549) was > 100 µM (inactive), the GI50 (HCC 2998) was > 100 µM (inactive) and the GI50 (HCT-15) was 36.7 µM. For the same compound, the GI50 (HL-60) was 18.8 µM (inactive), the GI50 (HOP-62) was 48.5 µM (inactive) and the GI50 (M14) was > 100 µM (inactive). The GI50 (NCI-H226) was 58.3 µM (inactive), the GI50 (RXF 393) was > 100 µM (inactive) and the GI50 (SF-268) was > 100 µM (inactive). For the same compound, the GI50 (SK-MEL-28) was > 100 µM (inactive), the GI50 (SK-OV-3) was > 100 µM (inactive) and the GI50 (SNB-75) was 42.4 µM (inactive). For the same compound, the GI50 (TK-10) was > 100 µM (inactive) and the GI50 (U-251) was 59.8 µM (inactive).
